Source: patent US20210343422A1, “METHODS FOR DYNAMIC MODELING AND CLOSED-LOOP CONTROL OF INFLAMMATION” (Georgia Tech Research Corporation, priority 2018, published 2021)
Entries after “also recorded” stand apart in the source; their conditions may differ.

How the values were obtained:
[1] = test system: RAW 264.7 murine immortalized macrophages; assay: iNOS expression by immunocytochemistry (ICC), normalized to nuclei count; assay type: cell-based; settings: for sensitivity of iNOS response, IFN-γ versus TNF-α as second pro-inflammatory stimulus: FIG. 9
Description: (§1) All studies in this work were performed using RAW 264.7 murine immortalized macrophages (ATCC TIB-71™). Macrophages were expanded, maintained, and cultured in basal macrophage medium, which is comprised of DMEM (Thermo Fisher Scientific; Ser. No. 12/430,062), 10% FBS (Thermo Fisher Scientific; 26140079), and 1% antibiotic/antimycotic (Sigma-Aldrich; A5955).
(§2) Raw 264.7 macrophages were cultured to 70% confluence before conditioning began. Cells were conditioned by addition of medium with lipopolysaccharide (LPS; Sigma-Aldrich; L2880), interferon gamma (IFN-γ; R&D Systems; 485-MI), or interleukin (IL)-4 (PeproTech; 214-14) as indicated.
(§3) Raw 264.7 macrophages were conditioned with LPS or IFN-γ alone to quantify individual stimulus dynamic response, with LPS or IFN-γ sequentially to recover iNOS expression via orthogonal input, or with LPS […] to quantify supra-additivity and model predictive control strategy response. Pre-treatment, 24 hours of IL-4 prior to addition of LPS or IFN-γ, was used to induce an anti-inflammatory, non-nave state for experiments involving hysteretic effects.
For immunocytochemistry (ICC) experiments, macrophages were cultured in 96-well microplates. Macrophages were fixed in 4% PFA solution for 15 minutes and blocked with 5% BSA+3% goat serum in PBS for one hour. Cells were stained with α-iNOS antibody (Cell Signaling Technology; Cat. No. 13120; 1:400) and DAPI for normalization to nuclei count. Cells were imaged at 10× magnification (Zeiss Observer Z1). Image fluorescence was thresholded and total fluorescence above the threshold was normalized to nuclei number.
(§4) ICC and Western blot data were aggregated and iNOS expression for each independent experiment was normalized to the positive control with Raw264.7 cells treated with 1 μg/mL LPS for 24 hours (dynoDataLoad.m). iNOS dynamics plots were generated using the Gramm package for MATlAB. Data at sampled time points (0, 24 48, and 72 hours) were expressed as mean±SEM for separated data (N=38 for LPS single input experiments; N=8 for LPS repeated input experiments; N=8 for LPS cycled input experiments; N=32 for IFN-γ single input experiments; N=16 for IFN-γ repeated input experiments; N=16 for IFN-γ cycled input experiments). To generate interpolation curves data were smoothed using the Savitzky-Golay (sgolay) option in the curve fitting toolbox. Shaded band on curve represents root mean squared (RMS) cross validation error on smoothed data (macrophageDyn_figGenv3.m).

[2] = test system: RAW 264.7 murine immortalized macrophages; assay: iNOS expression by quantitative Western blot, normalized to α-tubulin; assay type: cell-based
Description: as §1, §2
For Western blot experiments, cells were cultured in 6-well plates then lysed using RIPA buffer with PMSF (Sigma-Aldrich), and cOmplete Mini (Sigma-Aldrich). Membranes were probed for α-tubulin (Sigma-Aldrich, Cat. No. T6074; 1:4000) and iNOS (1:1000). Membranes were imaged on a LiCor Odyssey CLx machine and quantified in ImageStudio Lite. iNOS band intensity was normalized to α-tubulin intensity to yield iNOS expression.
as §4

[3] = test system: Raw264.7 cells; assay: Arg1 expression for M2 polarization validation; assay type: cell-based, murine; settings: IL-4 pre-conditioning, FIG. 11
Description: as §3
To model Raw264.7 cells starting in a non-nave state, the inventors pre-conditioned macrophages with IL-4 for 24 hours prior to pro-inflammatory stimulation. […] Reference source not found. For each LPS concentration, iNOS expression for non-M2 polarized LPS-only treated cells were divided by iNOS expression values from cell treated with an array of IL-4 concentrations for 24 hours followed by 24 hours of LPS. The matrix of LPS and IL-4 concentrations was interpolated using 3rd order linear least squares, which provided the inverse of the continuous input concentration-dependent attenuation factor γ. […] The M2 driven attenuation of M1 response reflects the systemic immunosuppression that poses a major risk to post-traumatic or surgical injury patients.

[4] = physiologically relevant concentration range

TNF-α was tested, and the “sensitivity of iNOS response, IFN-γ versus TNF-α as second pro-inflammatory stimulus” value [1, 4] was “more sensitive to IFN-γ”.

lipopolysaccharide [LPS] was tested, and the “time of peak in iNOS expression” value ([2]; single administration of 1 μg/ml LPS) was 24 h, the “decay of iNOS expression to baseline after the peak” value ([2]; single administration of 1 μg/ml LPS, LPS not removed) was 48 h and the “duration of iNOS level” value ([1]; LQG controller input: 24 hours of 20 ng/ml, then 48 hours at 1 μg/ml LPS) was “sustained this iNOS level through 48 hours, but not through 72 hours”. For the same molecule, the “iNOS expression level, of the reference” value ([1]; LQG controller input: 24 hours of 20 ng/ml, then 48 hours at 1 μg/ml LPS, read at 24 hours) was 60%, the “iNOS expression, peak, of normalized max iNOS” value ([1]; PI controller input: 40 ng/ml LPS for 24 hours, then 1 μg/ml until 72 hours, read at 24 hours, max = 24 hour level given 1 μg/ml LPS) was “approximately 70%” and the “iNOS expression, of max” value ([1]; PI controller input: 40 ng/ml LPS for 24 hours, then 1 μg/ml, read at 48 hours) was 50 % max. The “iNOS response above the high LPS concentration” value ([1]; above 1 μg/ml LPS) was “response tapered off”, the “iNOS expression at 72 hours” value ([1]; combined PI and LQG three-step LPS input strategy) was “did not keep activation high at 72 hours” and the “iNOS expression dynamics on repeated or cycled LPS stimulation” value ([1]; multiple administrations of LPS, or 24 hours in control media before LPS re-stimulation) was “did not alter iNOS expression dynamics; also recorded: not modulated”. The “LPS dose-to-iNOS response relationship” value ([1]; physiologically relevant concentration range, up to 1 μg/ml LPS) was “monotonic”.

B1: interferon gamma (protein, UniProt P01580 23-155, looked up)
Interferon gamma: HGTVIESLESLNNYFNSSGIDVEEKSLFLDIWRNWQKDGDMKILQSQIISFYLRLFEVLKDNQAISNNISVIESHLITTFFSNSKAKKDAFMSIAKFEVNNPQVQRQAFNELIRVVHQLLPESSLRKRKRSRC
notes: interferon gamma (R&D Systems; 485-MI), second orthogonal pro-inflammatory input
B1 was tested, and the “temporal iNOS response to IFN-γ alone” value ([1]; 100 ng/ml IFN-γ alone, FIG. 10) was “not sustained”, the “iNOS levels after prior LPS input” value ([1]; 24 hrs of LPS, then IFN-γ delayed or immediately after, FIGS. 4B-4C) was “robustly increased iNOS levels” and the “effect on LPS-induced iNOS expression (supra-additivity)” value ([1]; IFN-γ with LPS, concomitantly or in series, through 72 hours) was “amplifies LPS-induced iNOS expression”. The “iNOS expression in IL-4 pre-treated cells, IFN-γ with LPS versus LPS alone” value ([1]; lower LPS and higher IL-4 concentrations, FIG. 5B-5C) was “greater iNOS expression was observed” and the “sensitivity of iNOS response, IFN-γ versus TNF-α as second pro-inflammatory stimulus” value [1, 4] was “more sensitive to IFN-γ”.

B2: interleukin (IL)-4 (protein, UniProt P07750 21-140, looked up)
Interleukin-4: HIHGCDKNHLREIIGILNEVTGEGTPCTEMDVPNVLTATKNTTESELVCRASKVLRIFYLKHGKTPCLKKNSSVLMELQRLFRAFRCLDSSISCTMNESKSTSLKDFLESLKSIMQMDYS
notes: interleukin-4 (PeproTech; 214-14), used to induce an anti-inflammatory, non-naive state
B2 was tested, and the iNOS protein expression ([2]; IL-4 treatment, FIG. 8, n=2) was “not expressed”, the “iNOS expression after IL-4 pre-conditioning” value ([1]; IL-4 for 24 hours, then 24 hr of LPS) was “attenuated expression of iNOS” and the Arg1 expression [3] was “increased expression of Arg1”.
